The text below walks through data of US12290513B2, “Therapeutic methods and compositions for treating movement disorders” (Vima Therapeutics, Inc., priority 2023, dated 2025).

Read-outs that look alike come from different tables or passages of the source.

The target of series [1] is human muscarinic receptor M1 (Homo sapiens, UniProt P11229). Kind of series: cell-based. As for the experimental part:
(§1) All cells used in the following experiments were clonal populations of Chinese Hamster Ovary (CHO) cells stably expressing the corresponding human muscarinic receptor, except for the M4 cell line, which was a population of CHO cells transiently transfected with the human M4 receptor. […] The procedure was as follows: • 1. Cells were thawed and cultured in cell culture medium (DMEM/F12 containing 10% FBS, 1× penicillin-streptomycin and 600 μg/ml hygromycin B) at 37° C. in 5% (v/v) CO2. • 2. One day before the assays, cells were detached using TrypLE™ and counted using a cell-counter. […] 12,000 cells/well were seeded in 30 μl/well culture medium in a 384-well cell plate and incubated overnight at 37C, 5% (v/v) CO2. • 4. On the assay day, 2× dye solution was prepared following the manual of the FLIPR® Calcium 6 Assay Kit: • i. The dye was diluted with assay buffer (20 mM HEPES in 1× HBSS, PH 7.4); • ii. Probenecid was added to a final concentration of 5 mM; • iii. […] were vortexed vigorously for 1-2 minutes. • 5. Medium was removed from the cell plate by flicking the cell plate on paper towels. • 6. 10 μl of assay buffer and 10 μl of 2× dye solution was added to each well of the cell plate. • 7. The cell plate was shaken on a plate shaker at 600 rpm for 2 minutes and incubated at 37° C. for 2 hours followed by an additional 15-minute incubation at 25° C. • 8. The test compounds were next prepared in assay buffer: • a. All compounds were diluted to the required concentration with DMSO and added to a 384-well compound plate; • b. All compounds were serially diluted; • 1. Starting with 10 mM concentration of each test compound, all samples were serially diluted in 3-fold dilutions. • 2. 90 nl/well of each compound was transferred from the source plate to a 384-well compound plate using an Echo liquid handler. • 3. 30 μl/well assay buffer was added to the compound plate; • c. The plates were mixed on a plate shaker for 2 mins; • 9. The cell plate, compound plate and pipette tips were placed in the FLIPR screening system and 10 μl of each compound was added to a well of the cell plate. • 10. Plates were read for 160 sec with 1 sec intervals to obtain the data in agonist mode, then kept at 25° C. in the dark for 30 min. • 11.

The target in series [2] is human muscarinic receptor M3 (Homo sapiens, UniProt P20309). As to the kind of experiment: cell-based. As for the experimental part:
as §1

The target in series [3] is M1 Muscarinic Receptor (Homo sapiens, UniProt P11229). As to the kind of experiment: (S)-BTC titration on M1 in the presence of fixed (R)-THP concentrations. The series is classed as cell-based. The following applies: with increasing concentration of (R)-THP (58.5, 195, 585 nM). As for the experimental part:
All cells used in the following experiments were clonal populations of Chinese Hamster Ovary (CHO) cells stably expressing the corresponding human muscarinic receptor, except for the M4 cell line, which was a population of CHO cells transiently transfected with the human M4 receptor. […] The procedure was as follows: • 1. Cells were thawed and cultured in cell culture medium (DMEM/F12 containing 10% FBS, 1× penicillin-streptomycin and 600 μg/ml hygromycin B) at 37° C. in 5% (v/v) CO2. • 2. One day before the assays, cells were detached using TrypLE™ and counted using a cell-counter. […] 12,000 cells/well were seeded in 30 μl/well culture medium in a 384-well cell plate and incubated overnight at 37C, 5% (v/v) CO2. • 4. On the assay day, 2× dye solution was prepared following the manual of the FLIPR® Calcium 6 Assay Kit: • i. The dye was diluted with assay buffer (20 mM HEPES in 1× HBSS, PH 7.4); • ii. Probenecid was added to a final concentration of 5 mM; • iii. Cells were vortexed vigorously for 1-2 minutes. • 5. Medium was removed from the cell plate by flicking the cell plate on paper towels. • 6. 10 μl of assay buffer and 10 μl of 2× dye solution was added to each well of the cell plate. • 7. […] Plates were read for 160 sec with 1 sec intervals to obtain the data in agonist mode, then kept at 25° C. in the dark for 30 min. • 11.

The nature of series [4]: Whole blood stability, dog. As for the experimental part:
(§2) Procedures for blood Stability. • A. 398 μL of blood from each species was added to an incubation plate, which was pre-warmed at 37C for 15 minutes. • B. After the pre-incubation, 2 μL of working solution (test compounds or control compounds) was spiked to 398 μL of blood to reach a final concentration of 1 μM for test compounds and 5 μM for control compounds. The final concentration of organic solvents is 0.5%. The assays were performed in duplicate. • C. The reaction samples were incubated at 37C. • D. Aliquots of 50 μL were taken from the reaction samples at 0, 15, 30, 60 and 120 minutes. The reaction was stopped by the addition of 50 μL ultrapure water and 400 μL cold acetonitrile. • E. All samples were vortexed for 10 minutes, followed by centrifugation at 3,220 g for 40 minutes to precipitate proteins. 100 μL of the supernatant was then transferred to a new plate. The supernatant was diluted with ultrapure water as needed for detection by LC-MS/MS. Sample Analysis
(§3) Samples were analyzed by LC-MS/MS to measure the concentration of the test compounds.
(§4) All calculations were carried out using Microsoft Excel and according to standard analysis methods that are known in the art.

Series [5] is described as follows: Whole blood stability, rat. As to conditions: rat, blood; for Remaining Percentages (%) 0 min: 0 h, 1 μM. As for the experimental part:
as §2, §3, §4

A short description of series [6]: In vivo PK of (S)-BTC in rats: plasma, brain, CSF. The following applies: male, Sprague Dawley, rat, 10 mg/kg single oral dose; for Kp: po, 10 mg/kg. As for the experimental part:
6-8-week-old male Sprague Dawley rats were fasted overnight prior to treatment. […] Treated animals were exsanguinated prior to brain collection, and brain samples were frozen at −80° C. […] Concentrations of compounds in the plasma, brain, CSF samples were analyzed using a standard LC-MS/MS method to detect parent test compound from each of the processed tissues. The following pharmacokinetic parameters were calculated and analyzed using WinNonlin (Phoenix™, version 8.3): T1/2, Cmax, Tmax, MRT, AUCinf, AUClast, F %, ratio of brain/plasma, ratio of CSF/plasma, and ratio of CSF/brain.

The conditions of series [7]: human, in vivo. As for the experimental part: Experimental Design: All of the data collected in this example were run in a double-blind, randomized, placebo controlled setting of normal healthy adults. […] Dizziness was measured by the visual analog scale (VAS), a common clinical measure of dizziness.
In series [8] the target is M4 (h) (antagonist radioligand) (Homo sapiens, UniProt P08173). The following applies: at the tested concentration; negative values set to zero.
Series [9] deals with PCP (antagonist radioligand). As to conditions: at the tested concentration; negative values set to zero.
Series [10] deals with D2S (h) (agonist radioligand) (Homo sapiens, UniProt P14416). The following applies: at the tested concentration; negative values set to zero.
For series [11], the target named is CYP2D6 (Homo sapiens, UniProt P10635). Kind of series: Incubation with recombinant CYP2D6.

For `C[C@@H](C[N+](C)(C)C)OC(N)=O.[Cl-]` [(S)-BTC, (S)-bethanechol], the results for the EC50 in [1] and in series [2] were 0.195 µM and 0.0208 µM, respectively. Also, in [3], the “agonist effect of (S)-BTC toward the M1 muscarinic receptor” value is reported as “decreases substantially”. Also, the “Remaining Percentages (%) 0 min” value in [4] (dog whole blood, 37C) is reported as 100.00%; in [5], 100.00%. Also, the t1/2 result is listed as “∞” in series [4] (dog, blood) and “∞” in series [5]. Moreover, the Kp was determined as 0.00615 in series [6] (CSF and plasma, read-out: AUClast Ratio (CSF/Plasma)); 0.00553 in series [6] (CSF and plasma, read-out: Cmax Ratio (CSF/Plasma)); 0.0499 in series [6] (brain and plasma, read-out: AUClast Ratio (Brain/Plasma)); 0.0242 in [6] (brain and plasma, read-out: Cmax Ratio (Brain/Plasma)). In addition, the AUC(0-t) worked out at 6.31 ng·h/mL in [6] (CSF, mean) and 1030 ng·h/mL in [6] (plasma, mean). The Cmax amounted to 1.74 ng/mL in [6] (CSF, mean); 7.6 ng/g in series [6] (brain, mean); 314 ng/mL in series [6] (plasma, mean). In addition, the Tmax amounted to 0.5 h in series [6] (CSF, mean); 8 h in series [6] (brain, mean); 1 h in [6] (plasma, mean). The same compound gave an AUC(0-inf) in series [6] (plasma, mean) of 1080 ng·h/mL. For the same compound, in [6] (plasma, mean), the half-life was 1.81 h. Besides, the MRT inf in series [6] (plasma, mean, read-out: MRTInf obs) was 2.91 h.

Regarding `O[C@@](CCN1CCCCC1)(c1ccccc1)C1CCCCC1` [(R)-THP, (R)-trihexyphenidyl], the “Remaining Percentages (%) 0 min” value in [4] (dog whole blood, 37C) is on record as 100.00%; in series [5], 100.00%. Moreover, the t1/2 entry was “∞” in series [4] (dog whole blood, 37C) and “∞” in series [5]. The “share of exposure that is R-THP” value in [7] is listed as 85%. Moreover, in series [8], the “signal, M4 (h) (antagonist radioligand)” value was 98.88%. In series [9], the “signal, PCP (antagonist radioligand)” value stood at 0.00%. Further, in [10], the “signal, D2S (h) (agonist radioligand)” value worked out at 0.23%. Further, in series [11], the “Substrates of CYP2D6” value is “Rac, R and S”.

On to `O[C@](CCN1CCCCC1)(c1ccccc1)C1CCCCC1` [(S)-THP, (S)-trihexyphenidyl], for which, in series [8], the “signal, M4 (h) (antagonist radioligand)” value is reported as 97.82%. Besides, the “signal, D2S (h) (agonist radioligand)” value in series [10] was 35.79%. Further, the “Substrates of CYP2D6” value in series [11] was “Rac, R and S”.
